# Values joined by “and” are separate entries in the source; they are usually repeats but may differ in a detail not shown here. Identical values can stand only once.
# Assay: solvent given as SMILES
structure (smiles),measurement,setting,value
c1ccc(-c2nc3ccccc3nc2-c2ccccc2)cc1,emission maximum,in C1CCOC1,401 nm
same,emission maximum,in CC#N,399 nm
same,emission maximum,in CCCCCC,396 nm
same,emission maximum,in CN(C)C=O,403 nm
same,emission maximum,in Cc1ccccc1,400 nm
same,emission maximum,in ClC(Cl)Cl,398 nm
CCN(CC)c1ccc(/C=C/C(=O)c2c(O)cc(C)oc2=O)cc1,emission maximum,in CC#N,562 nm
same,emission maximum,in CCCO,562 nm
same,emission maximum,in CCO,570 nm
same,emission maximum,in CCOC(C)=O,545 nm
same,emission maximum,in Cc1ccccc1,534 nm
same,emission maximum,in ClCCl,575 nm
CC(C)(C)OC(=O)COc1ccc2c(c1)oc(=O)c1c(=O)oc3ccccc3c12,emission maximum,in CS(C)=O,449 nm
same,emission maximum,in ClCCl,440 nm
CN(C)c1ccc2nc(-c3ccc(C(=O)OC[C@H](NC(=O)OC(C)(C)C)C(=O)OCc4ccccc4)cc3)sc2c1,emission maximum,in C1CCCCC1,456 nm
same,emission maximum,in CC#N,568 nm
same,emission maximum,in CC(C)O,558 nm
same,emission maximum,in CO,577 nm
same,emission maximum,in CS(C)=O,583 nm
same,emission maximum,in ClC(Cl)Cl,504 nm
same,emission maximum,in c1ccccc1,484 nm
N#Cc1ccc(C#Cc2ncc(-c3ccccc3)o2)cc1,emission maximum,in ClCCl,410 nm
Cc1c(OCC(=O)O)cc2c3c([nH]c2c1C)C(=O)CCC3,emission maximum,in C1COCCO1,403.62 nm
same,emission maximum,in CC#N,419.17 nm
same,emission maximum,in CCO,461.12 nm
same,emission maximum,in CS(C)=O,427.12 nm
same,emission maximum,in O,507.23 nm
N#C/C(=C\c1cc(/C=C(\C#N)c2ccc(C(F)(F)F)cc2)c(-c2ccc(N(c3ccccc3)c3ccccc3)cc2)cc1-c1ccc(N(c2ccccc2)c2ccccc2)cc1)c1ccc(C(F)(F)F)cc1,emission maximum,in C1CCCCC1,478 nm
same,emission maximum,in C1CCOC1,587 nm
same,emission maximum,in CCCCCC,473 nm
same,emission maximum,in CCOC(C)=O,581 nm
same,emission maximum,in Cc1ccccc1,515 nm
same,emission maximum,in ClC(Cl)Cl,553 nm
same,emission maximum,in ClCCl,594 nm
CN(C)c1ccc(-c2ccc(-c3cc(-c4ccccc4)c(-c4ccccc4)c(-c4ccccc4)c3-c3ccccc3)nc2)cc1,emission maximum,in ClC(Cl)Cl,429 nm
COc1ccc2c3ccc(OC)cc3n(-c3ccc(-c4nnc(-c5c(C)cc(C)cc5C)o4)cc3C)c2c1,emission maximum,in Cc1ccccc1,436 nm
CN1C(=CC2=C([O-])C(=Cc3sc4ccccc4[n+]3C)C2=C(C#N)C#N)C(C)(C)c2ccccc21,emission maximum,in ClC(Cl)Cl,708 nm
O=C(O)c1c2ccccc2nc2ccccc12,emission maximum,in C1CCOC1,418 nm
same,emission maximum,in C1COCCO1,421 nm
same,emission maximum,in CC#N,421 nm
same,emission maximum,in CCCCCO,422 nm
same,emission maximum,in CCCCO,422 nm
same,emission maximum,in CCCO,422 nm
same,emission maximum,in CCO,421 nm
same,emission maximum,in CO,421 nm
same,emission maximum,in COCCOC,419 nm
same,emission maximum,in ClC(Cl)Cl,436 nm
same,emission maximum,in ClCCl,422 nm
same,emission maximum,in OCCO,425 nm
C/C(=N\Nc1ccc(C#N)cc1)c1ccccn1,emission maximum,in CC#N,463 nm
same,emission maximum,in CCCCCC,452 nm
same,emission maximum,in CO,482 nm
same,emission maximum,in CS(C)=O,475 nm
same,emission maximum,in ClC(Cl)Cl,460 nm
F[B-]1(F)Oc2ccccc2-c2cc(-n3c4ccccc4c4ccccc43)cc[n+]21,emission maximum,in Cc1ccccc1,449 nm
same,emission maximum,in O=P(c1ccccc1)(c1ccccc1)c1ccccc1Oc1ccccc1P(=O)(c1ccccc1)c1ccccc1,475 nm
Nc1ccc2nc3c4ccccc4c(=[NH2+])cc-3oc2c1,emission maximum,in CCO,619 nm
CCn1c(-c2ccc(-c3ccc4ccc5cccc6ccc3c4c56)cc2)c(-c2ccc3ccccc3c2)c(-c2ccc3ccccc3c2)c1-c1ccc(-c2ccc3ccc4cccc5ccc2c3c45)cc1,emission maximum,in CCOC(C)=O,460 nm
c1ccc(N(c2ccccc2)c2ccc(-c3ccc(-c4ccc(N(c5ccccc5)c5ccccc5)cc4)c4nsnc34)cc2)cc1,emission maximum,in ClCCl,639 nm
CC1=[N+]2C(=C(Oc3ccccc3)c3ccc(C)n3[B-]2(F)F)C=C1c1cc2n(c1)[B-](F)(F)[N+]1=CC=CC1=C2c1c(C)cc(C)cc1C,emission maximum,in C1CCCCC1,630 nm
same,emission maximum,in CCOC(C)=O,665 nm
CCCCCCCCc1ccc(-c2c3cc(-c4cc(CCCCCCCC)c(-c5ccc(-c6sc(/C=C7\SC(N8CCCCC8)=NC7=O)cc6CCCCCCCC)s5)s4)sc3c(-c3ccc(CCCCCCCC)s3)c3cc(-c4cc(CCCCCCCC)c(-c5ccc(-c6sc(/C=C7\SC(N8CCCCC8)=NC7=O)cc6CCCCCCCC)s5)s4)sc23)s1,emission maximum,in ClC(Cl)Cl,576 nm
c1cc2cc(c1)c1ccc3c(c1)c1cc(ccc1[C@]14OCCO[C@]31OCCO4)c1ccc3c(c1)c1cc(ccc1[C@]14OCCO[C@]31OCCO4)c1cccc2c1,emission maximum,in ClC(Cl)Cl,347 nm
CCCCCOc1ccc2c(c1)c1ccc3cccc4c5cccc6oc(=O)c2c(c65)c1c34,emission maximum,in C1CCOC1,462 nm
CC(C)[Si](C#Cc1c2cc3ccccc3cc2c(C#C[Si](C(C)C)(C(C)C)C(C)C)c2cc3ccccc3cc12)(C(C)C)C(C)C,emission maximum,in ClCCl,649 nm
CC(C)(C)c1ccc(C2=C(c3ccc(N(c4ccccc4)c4ccccc4)cc3)S(=O)(=O)c3c2sc(-c2ccc(N(c4ccccc4)c4ccccc4)cc2)c3-c2ccc(C(C)(C)C)cc2)cc1,emission maximum,in C1CCOC1,591 nm
c1cc2c3c(cccc3c1)NC(c1ccc3ccc4cccc5ccc1c3c45)N2,emission maximum,in CC#N,458 nm
same,emission maximum,in CO,450 nm
same,emission maximum,in CS(C)=O,420 nm
same,emission maximum,in Cc1ccccc1,502 nm
CC1=C(c2ccc(N(C)C)cc2)C(C)=[N+]2C1=C(c1c(-c3ccccn3)nc3ccccn13)c1c(C)cc(C)n1[B-]2(F)F,emission maximum,in ClCCl,524 nm
CCOC(=O)CCCCCn1c2ccc(N)cc2c(=O)c2cc3c(cc21)c(=O)c1cc(N)ccc1n3CCCCCC(=O)OCC,emission maximum,in ClCCl,608 nm
Cc1ccccc1,emission maximum,in C1CCCCC1,286.62 nm
CC(C)(C)c1ccc(C2=Cc3cc4c(cc3P2(=O)c2ccccc2)C=C(c2ccc(C(C)(C)C)cc2)P4(=O)c2ccccc2)cc1 (centres undefined),emission maximum,in C1CCOC1,495 nm
Cn1c(=O)c(/N=N/c2cc(S(=O)(=O)O)ccc2S(=O)(=O)O)c(O)c2ccccc21,emission maximum,in C1CCOC1,498 nm
same,emission maximum,in CC(C)=O,491 nm
same,emission maximum,in CCOC(C)=O,493 nm
same,emission maximum,in CO,483 nm
same,emission maximum,in CS(C)=O,490 nm
same,emission maximum,in Cc1ccccc1,490 nm
same,emission maximum,in ClCCl,493 nm
same,emission maximum,in O,500 nm
Cc1ccc(N(c2ccc(C)cc2)c2ccc(-c3ccc(C=C(C#N)C#N)cc3)cc2)cc1,emission maximum,in ClC(Cl)Cl,676 nm
FC(F)(F)c1cc2n(n1)[B-]1(c3ccccc3Oc3ccccc31)[n+]1ccc3ccccc3c1-2,emission maximum,in C1CCCCC1,473 nm
same,emission maximum,in Cc1ccccc1,517 nm
same,emission maximum,in ClCCl,543 nm
Cc1ccc(-c2c3nc(c(-c4ccc(C)cc4)c4ccc([nH]4)c(-c4ccc(OC(=O)C(C)c5ccccc5)cc4)c4nc(c(-c5ccc(C)cc5)c5ccc2[nH]5)C=C4)C=C3)cc1 (centres undefined),emission maximum,in ClCCl,653 nm
CCN(CC)c1cc2oc3cc(O)c(F)cc3c(=O)c2cc1F,emission maximum,in CCO,438 nm
CCCCOC(=O)c1cc(Oc2ccc(C(C)(C)C)cc2)c2c3c(Cl)cc4c5c(cc(Cl)c(c6c(Oc7ccc(C(C)(C)C)cc7)cc(C(=O)OCCCC)c1c26)c53)C(=O)N(c1c(C(C)C)cccc1C(C)C)C4=O,emission maximum,in Cc1ccccc1,589 nm
Cc1cc(C(F)(F)F)nc2c1ccc1nc(-c3ccc(Cl)cc3)cn12,emission maximum,in CC#N,463 nm
same,emission maximum,in CCCCCC,439 nm
same,emission maximum,in CCCCOC(C)=O,455 nm
same,emission maximum,in CCOC(C)=O,457 nm
same,emission maximum,in CO,459 nm
same,emission maximum,in Cc1ccccc1,455 nm
same,emission maximum,in ClC(Cl)Cl,452 nm
same,emission maximum,in ClCCl,455 nm
same,emission maximum,in c1ccccc1,455 nm
c1ccc(-c2nc(-c3ccccc3)nc(-c3ccc(N4c5ccccc5C5(c6ccccc64)c4ccccc4C4(c6ccccc6-c6ccccc64)c4ccccc45)cc3)n2)cc1,emission maximum,in Cc1ccccc1,475.42 nm
CCCCCOc1cc2oc(=O)c3c4ccc(C#N)cc4c4ccc5cccc6c(c1)c2c3c4c56,emission maximum,in C1CCOC1,444 nm
c1ccc(N(c2ccccc2)c2ccc(-c3nc4c5ccccc5c5ccccc5c4n3-c3ccccc3)cc2)cc1,emission maximum,in ClCCl,468 nm
CC1(C)C(/C=C/C=C/C=C/C=C2/N(CCCCCC(=O)O)c3ccc(S(=O)(=O)[O-])cc3C2(C)C)=[N+](CCCCCC(=O)O)c2ccc(S(=O)(=O)[O-])cc21,emission maximum,in CO,773 nm
same,emission maximum,in O,771 nm
CCCCCCN(c1ccccc1)c1ccc(/C=C/c2cc(=O)oc3cc(C)ccc23)cc1,emission maximum,in CS(C)=O,583 nm
same,emission maximum,in ClC(Cl)Cl,544 nm
COc1ccccc1CC(=O)OCc1c(C)c(=O)n2c(=O)c(C)c(C)n12,emission maximum,in CCO,461 nm
O=C1CC(c2ccccc2)c2c(c3ccccc3c3nc4ccccc4nc23)O1 (centres undefined),emission maximum,in ClC(Cl)Cl,431 nm
CCCCn1c(-c2ccc(-c3nnc(-c4ccc(-c5nc6ccccc6n5CCCC)cc4)o3)cc2)nc2ccccc21,emission maximum,in ClCCl,407 nm
CCOC(=O)CCCCCn1c2ccc(C)cc2c(=O)c2cc3c(cc21)c(=O)c1cc(C)ccc1n3CCCCCC(=O)OCC,emission maximum,in CO,565 nm
CC(C)(C)c1cc2ccc3c(N(c4ccc(F)cc4)c4ccc(F)cc4)cc(N(c4ccc(F)cc4)c4ccc(F)cc4)c4ccc(c1)c2c34,emission maximum,in ClCCl,465 nm
Cc1ccc(-n2c(-c3cccc4cc[n-]c34)[nH+]c3c4ccccc4c4ccccc4c32)cc1,emission maximum,in Cc1ccccc1,566 nm
CC1CC=C(c2ccc(-c3cccs3)s2)CC1 (centres undefined),emission maximum,in C1CCOC1,412 nm
same,emission maximum,in CC#N,404 nm
same,emission maximum,in CCCCCC,408 nm
same,emission maximum,in CCO,411 nm
same,emission maximum,in OCCOCCO,414 nm
same,emission maximum,in c1ccncc1,417 nm
COC(=O)CC1(C(=O)OC)Oc2c(c(C(C)=O)c3c(c2C(C)=O)OCO3)O1,emission maximum,in CC#N,532 nm
O=Cc1ccc2c(c1)c1ccccc1n2-c1ccc(-c2ccc(-n3c4ccccc4c4cc(C=O)ccc43)cc2)cc1,emission maximum,in ClCCl,405 nm
CC1(C)CC(=O)C2=C(C1)Oc1ccc3cc(O)ccc3c1C2c1ccccn1 (centres undefined),emission maximum,in C1CCOC1,374 nm
same,emission maximum,in C1COCCO1,377 nm
same,emission maximum,in CC#N,378 nm
same,emission maximum,in CCCCCCC,359 nm
same,emission maximum,in CCO,377 nm
same,emission maximum,in CO,377 nm
same,emission maximum,in O,378 nm
Cc1ccc(C2=C3C=c4c(oc5ccccc45)=[N+]3[B-](F)(F)n3c2cc2c4ccccc4oc23)cc1,emission maximum,in C1CCCCC1,596.5 nm
same,emission maximum,in C1CCOC1,596.5 nm
same,emission maximum,in CC#N,595.5 nm
same,emission maximum,in CCOC(C)=O,594.5 nm
same,emission maximum,in CN(C)C=O,598.5 nm
same,emission maximum,in CO,594.5 nm
same,emission maximum,in Cc1ccccc1,603 nm
same,emission maximum,in ClCCl,599 nm and 597 nm

# From the Deep4Chem optical property database
